pIC50: −log10 of the molar value. The source made the active and inactive calls.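 How the source made its calls: active means IC50 against T. cruzi CYP51 below a set limit; inactive means the rest.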

Usually pIC50 stands for the IC50 on a negative log10 scale, so that one unit is a factor of ten. For orientation: IC50 means the concentration needed to halve the response being measured.

The target in the assay is Sterol 14-alpha demethylase (Trypanosoma cruzi (strain CL Brener)) (UniProt Q7Z1V1). As to the kind of experiment: T. cruzi sterol 14-alpha demethylase inhibition – biochemical, recombinant enzyme, mechanism study for T. cruzi antiparasitic project, dose response (AID 1159558).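 Further: enzyme in bacterial membranes with Anopheles gambiae CYP reductase and cytochrome b5 partners.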 The following applies: recombinant T. cruzi CYP51, BOMCC fluorescence.
Sterol 14-alpha demethylase (Trypanosoma cruzi (strain CL Brener)), sequence (Q7Z1V1 whole entry, looked up): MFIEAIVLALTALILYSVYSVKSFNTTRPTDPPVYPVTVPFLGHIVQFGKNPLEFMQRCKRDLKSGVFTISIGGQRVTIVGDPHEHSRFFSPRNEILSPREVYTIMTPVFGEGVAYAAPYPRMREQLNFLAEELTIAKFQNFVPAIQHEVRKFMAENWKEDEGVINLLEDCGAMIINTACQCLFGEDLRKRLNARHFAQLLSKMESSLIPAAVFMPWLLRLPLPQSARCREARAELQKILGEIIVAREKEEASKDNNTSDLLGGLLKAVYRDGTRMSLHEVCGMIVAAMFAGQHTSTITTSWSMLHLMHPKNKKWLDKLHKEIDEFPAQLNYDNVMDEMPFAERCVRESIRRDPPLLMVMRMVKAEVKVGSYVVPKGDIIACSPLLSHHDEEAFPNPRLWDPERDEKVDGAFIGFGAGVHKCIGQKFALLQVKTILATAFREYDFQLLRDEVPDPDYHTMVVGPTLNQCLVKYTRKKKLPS
Consider `CS(=O)(=O)NC1CCC(Oc2cc3cnccc3cc2-c2ccsc2)CC1` (stereo not drawn), for which the pIC50 is 7.60. On to `COc1cccc(Nc2cc(C)nc(-c3ccccn3)n2)c1`, for which the IC50 is > 100 µM (inactive). For the compound `Fc1ccccc1N1C[C@H]2CCN(c3cccnc3)C[C@H]2C1`, the negative-log IC50 (pIC50) is 7.20. As for `CCC(CC)C(=O)Nc1cccc(C(=O)Nc2nnc(C3CCCCC3)s2)c1`, the IC50 was > 100 µM (inactive). On to `CS(=O)(=O)c1ccc(CC(=O)Nc2nc(-c3ccc(Cl)s3)cs2)cc1`, for which the IC50 was > 100 µM (inactive). For the compound `O=C(Nc1ccc(C(F)(F)F)cc1)Nc1cccc([N+](=O)[O-])c1`, the pIC50 was 5.20. On the same count and under the same terms, then `O=c1cc(CSc2ccc(Cl)cc2)nc(-c2ccccn2)[nH]1`, with 4.20. Turning to `COc1cccc(CN(C)Cc2nc(N)c3c(C)c(C)sc3n2)c1`, the IC50 is > 100 µM (inactive).

In the case of `O=C(CN(Cc1ccccn1)Cc1ccccn1)NCc1csc(-c2cccs2)n1`, the pIC50 was 4.40. Regarding `CCN(CC)S(=O)(=O)c1ccc(Cn2nc(C(=O)Nc3ccncn3)c3ccccc32)cc1`, the pIC50 was 6.80. Still for that read-out and setting: with `CCNc1cc(-c2ccccn2)nc(Nc2ccc(OC)cc2)n1` the figure was 4.40. Consider `N#CN1CC[C@@H](NC(=O)Nc2ccccc2Oc2ccccc2)C1`, for which the IC50 was > 100 µM (inactive).

Turning to `NC(=O)c1ccccc1Nc1nc(NC2CCCCC2)nc2[nH]ccc12`, the IC50 is > 100 µM (inactive). As for `Cn1cncc1CN1CCC2(CC1)COC(Cc1ccccc1)C2` (stereo not drawn), the negative-log IC50 (pIC50) is 6.00. The same measure, in the same setting: with `CC(c1ccccn1)N(C)Cc1nc2ccccc2n1C(C)C` (stereo not drawn) the figure was 4.49; with `Cc1nc(C(=O)Nc2ccc3c(c2)OCO3)nn1-c1ccc(Cl)cc1`, 4.49; with `N#Cc1ccc(S(=O)(=O)N2CCN(Cc3cccc(-c4ccncc4)c3)CC2)cc1`, 7.10. For the compound `Oc1cccnc1-c1n[nH]c(Cc2ccccc2)n1`, the IC50 was > 100 µM (inactive). Regarding `COc1ccc2ncc(F)c(CCN3CC[C@@H](NC(=O)c4cc5c(s4)CCC5)[C@@H](O)C3)c2n1`, the pIC50 was 5.89. Regarding `O=[N+]([O-])c1ccc(C2=CC(c3ccccc3)=NCCN2)cc1`, the pIC50 was 4.30.

Turning to `CN(Cc1ccc(C(N)=O)cc1)C(c1ccc(F)cc1)c1cccnc1` (stereo not drawn), the pIC50 is 7.00. Consider `COc1ccc(-c2cnc(C)o2)cc1S(=O)(=O)Nc1ccc(C)cc1C`, for which the pIC50 is 4.60. Consider `O=C(Nc1ccccc1)Nc1nc(-c2ccccn2)cs1`, for which the pIC50 is 4.49. Take `Cc1cccc(NS(=O)(=O)c2ccc3c(c2)C(=O)c2cc(S(=O)(=O)Nc4cccc(C)c4C)ccc2-3)c1C`: the IC50 was > 100 µM (inactive). On to `CCCCc1cc(Nc2cc(C3CCC3)[nH]n2)nc(N2CCC2C(N)=O)n1` (stereo not drawn), for which the IC50 was > 100 µM (inactive).

Take `CC(C)CC(=O)NC(c1cccs1)c1ccc2cccnc2c1O` (stereo not drawn): the pIC50 is 4.30. Regarding `CN(Cc1nc2ccccc2s1)C(=O)C=Cc1cc2ccccc2o1`, the pIC50 was 6.80. On to `CCN(CC)c1ccc(S(=O)(=O)N(CC)CC)c2nonc12`, for which the negative logarithm of the IC50 (pIC50) is 4.60.

Consider `CCc1cccc(-n2nc(OCC(=O)NC3CCCC3)c3cccnc32)c1`, for which the IC50 was > 100 µM (inactive). The same measure, in the same setting: then `CC(=O)Nc1ccc(-c2noc(CC3CCCN(Cc4cccc(F)c4C)C3)n2)cc1` (stereo not drawn), with > 100 µM (inactive). Take `O=C(NCCc1cccnc1)c1ccc(-c2ccccc2F)o1`: the pIC50 was 7.20. As to `CNC(=O)C1Cc2ccccc2N1C(=O)Cc1ccccc1` (stereo not drawn), the IC50 is > 100 µM (inactive). Turning to `O=C1CSC(c2cccnc2)N1c1ccc(Cl)cc1Cl` (stereo not drawn), the negative logarithm of the IC50 (pIC50) is 6.80. Turning to `COc1cccc(NS(=O)(=O)c2ccc3[nH]cc(C(=O)NCCC(C)C)c(=O)c3c2)c1`, the pIC50 was 5.20. Same read-out and setting: then `CC(=O)Nc1ccc(-c2cnc(N)c(-c3nc4ccc(F)cc4[nH]3)c2)cc1`, with 4.20; and `NCc1csc(Nc2cc(Oc3ccccc3)ncn2)n1`, with 6.49. Regarding `Cc1ccc(NC(=O)c2ccnc(N3CCCC3)c2)cc1-c1cc(C(N)=O)ccc1C`, the pIC50 is 5.40.

For the compound `O=C(CCc1ccc(-c2ccccc2)o1)N1CCN(c2ccc(O)cc2)CC1`, the pIC50 was 5.60.

Values taken from PubChem BioAssay AID1159558 (GlaxoSmithKline (GSK), 2015).
